From patent publication US9382295B2, “Cyclic depsipeptide compounds and their uses” (Cypralis Limited, priority 2012, dated 2016)
Values after ≈ are worked out from the molar mass of the structure shown. Like-named read-outs stand apart in the source and are kept apart here. Numbered stars: 1 amine (or outer) side, 2 acyl side, 3 side chain; on linkers, the order of the positions; unused ones are H or OH. Square brackets hold non-standard residues; d marks the D form. Peptide text beside a SMILES is read from it. X33 = C[C@H](CCN1CCC(F)(CO)CC1)[C@@H](O)[C@H](C(=O)[*:2])N(C)[*:1]; X20 = C[C@H](CCN1CCC(F)(F)CC1)[C@@H](O)[C@H](C(=O)[*:2])N(C)[*:1]; X1 = Cc1cccc(CCC[C@@H](C)[C@@H](O)[C@H](C(=O)[*:2])N(C)[*:1])n1; X8 = C[C@H](CCN1CCC[C@H]1CO)[C@@H](O)[C@H](C(=O)[*:2])N(C)[*:1]; X11 = C[C@H](CCN(C)CCC#N)[C@@H](O)[C@H](C(=O)[*:2])N(C)[*:1]; d(aThr) = C[C@@H](O)[C@@H](N)C(=O)O; NMeL = CN[C@@H](CC(C)C)C(=O)O; dNMeL = CN[C@H](CC(C)C)C(=O)O; dNMeV = CN[C@@H](C(=O)O)C(C)C; Hiv = CC(C)[C@H](O)C(=O)O; dAbu = CC[C@@H](N)C(=O)O; Sar = CNCC(=O)O

Key:
[1] = Water solubility assay (pH 7.8 buffer); assay type: physicochemical
Protocol: ***Water Solubility Assay (Measured in pH 7.8 Buffer)
The onset of precipitation, if it occurred, was detected by an increase in absorbance at 650 nm.
Assay Buffer: 35 mM HEPES pH 7.8
Stock solutions of Control and Test Compounds: 10 mM in 100% DMSO
10 mM stock solutions of control and test compounds were prepared in 100% DMSO. A series of dilutions were prepared from the stock in DMSO so that the final concentrations in the assay were 0, 3.33, 10, 25, 50, 75 and 100 μM and DMSO was limited to 1%.
Assay buffer (247.5 μl) was placed into flat bottomed transparent 96-well plate. For blank samples DMSO (2.5 μl) was added. For test and control samples 2.5 μl of the appropriate DMSO dilution stocks were added to the appropriate well. All test and control compounds were performed in triplicate.
The plates were sealed with adhesive plate seal and shaken at 250 rpm at 25° C. for 18 h on a plate shaker.
After incubation the plate seals were taken off and any bubbles observed in wells removed. The plates were read on a SpectraMaxM5 with a 5 s pre-shake at 650 nm.
Data files were transferred to the appropriate worksheet and the solubility range of the compounds was calculated from the data.
The values shown in the tables indicate the concentration in μM (micromolar) at which the compound remains in solution.

cyclophilin A (Cyp A) = molecular target: T1, cyclophilin A (Cyp A) (Homo sapiens, UniProt P62937); experiment: Protease-free PPIase assay, cyclophilin A; assay type: biochemical
T1 construct: purchased Sigma C3805
Protocol: (§1) The protease-free PPIase assay measures the rate of cis to trans conversion of a peptide substrate catalyzed by the enzymes cyclophilin A and cyclophilin D. Addition of a cyclophilin inhibitor (e.g., a test compound) slows the catalyzed rate and a Ki value is obtained. […] 35 mM HEPES pH 7.8, filtered through a 0.2 μm filter. 50 μM DTT was added prior to use each day and then the buffer was stored on ice. Human recombinant cyclophilin A (Cyp A) (Sigma C3805) enzyme was diluted to 1 μM with enzyme dilution buffer (20 mM HEPES pH 7.8, 40% glycerol, 50 μM DTT and 1 μM BSA) and stored at -20° C. Succinimide-[…]) (from Bachem AG, L-1400), 20 mg/ml prepared in 0.5 M LiCl in trifluoroethanol. All readings were taken with an Agilent 8453 Spectrophotometer which consists of a cuvette holder, stirrer and chiller to maintain a stirred cuvette temperature of 10.0±0.1° C. The temperature is monitored by the use of temperature probe. […] The inhibitor was diluted in 100% DMSO, and then added to the assay to a maximum final concentration of 0.5% DMSO in the assay. A blank spectrum was obtained, then 3 μL of enzyme was added (2 nM final concentration) and then 3 μL substrate (60 μM final concentration) added. The absorbance was measured at 330 nm for 300 s or 500 s for blank runs (NOTE: the substrate must be added in one quick injection and the measurements started immediately to minimize mixing errors). A first order rate equation was fitted to the absorbance data, for each concentration of inhibitor, to obtain the rate constant (the first 10 to 15 seconds were excluded as mixing causes errors in this portion of curve). The catalytic rate was calculated from the enzymatic rate constant minus the background rate constant. An exponential curve was generated using the catalytic rate constants versus the inhibitor concentration to obtain the Ki value for the inhibitor. The Ki value is indicative of the binding affinity between the test compound and cyclophilin A or cyclophilin D.

cyclophilin D (Cyp D) = cyclophilin D (Cyp D) (Homo sapiens, UniProt P30405); experiment: Protease-free PPIase assay, cyclophilin D; assay type: biochemical
Protocol: as §1, with “ice.” for “ice. Human recombinant cyclophilin A (Cyp A) (Sigma C3805) enzyme was diluted to 1 μM with enzyme dilution buffer (20 mM HEPES pH 7.8, 40% glycerol, 50 μM DTT and 1 μM BSA) and stored at -20° C.”

T1 sequence (P62937 whole entry): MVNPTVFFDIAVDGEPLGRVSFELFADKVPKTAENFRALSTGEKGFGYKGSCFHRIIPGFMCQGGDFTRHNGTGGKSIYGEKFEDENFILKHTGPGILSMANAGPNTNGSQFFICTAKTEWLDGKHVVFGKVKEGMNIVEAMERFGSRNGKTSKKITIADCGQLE
cyclophilin D (Cyp D), sequence (P30405 30-207): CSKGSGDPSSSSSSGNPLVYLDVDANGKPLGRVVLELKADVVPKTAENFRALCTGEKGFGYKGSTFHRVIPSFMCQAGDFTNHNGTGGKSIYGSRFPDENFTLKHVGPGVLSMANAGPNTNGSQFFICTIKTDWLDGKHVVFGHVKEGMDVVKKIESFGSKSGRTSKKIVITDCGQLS

SMILES | solubility at 18 h ([1]; pH 7.8) | Ki (cyclophilin A (Cyp A)) | Ki (cyclophilin D (Cyp D)) | solubility at 18 h ([1]; 35 mM HEPES buffer, 35 mM HEPES pH 7.8, 1% DMSO, 25° C., 18 h, concentration at which compound remains in solution, read-out: Solubility) | Ki (cyclophilin A (Cyp A); protease-free PPIase assay, class symbols, read-out: CypA Ki) | Ki (cyclophilin D (Cyp D); protease-free PPIase assay, class symbols, read-out: CypD Ki)
CC[C@H]1NC(=O)[C@@H]([C@H](O)[C@H](C)CCCc2cccc(C)n2)N(C)C(=O)[C@@H](C(C)C)N(C)C(=O)[C@@H](CC(C)C)NC(=O)[C@@H](CC(C)C)N(C)C(=O)[C@H](C(C)C)OC(=O)[C@@H](C)NC(=O)[C@@H](CC(C)C)N(C)C(=O)[C@@H](CC(C)C)NC(=O)[C@H](CC(C)C)N(C)C(=O)CN(C)C1=O [Example 21, cyclo-[(3R,4R,5S)-4-(hydroxy)-3-methyl-5-(methylamino)-1-(6-methyl-pyridin-2-yl)-heptanoic acid-Abu-Sar-MeLeu-Leu-MeLeu-Ala-D-Hiv-MeLeu-Leu-MeVal]] (cyclo([Hiv][dNMeL][dL][dNMeV][X1][dAbu][Sar][NMeL][dL][dNMeL][dA])) | 10 to 25 µM (≈ 13.1 to 32.8 µg/mL) | 1 to 25 nM | 1 to 25 nM |  |  | 
CC(C)C[C@@H]1C(=O)N[C@H](CC(C)C)C(=O)N(C)[C@H](C(C)C)C(=O)N(C)[C@H]([C@H](O)[C@H](C)CCN2CCC(F)(F)CC2)C(=O)N[C@H]([C@@H](C)O)C(=O)N(C)CC(=O)N(C)[C@@H](CC(C)C)C(=O)N[C@H](CC(C)C)C(=O)N(C)[C@H](CC(C)C)C(=O)N[C@H](C)C(=O)O[C@@H](C(C)C)C(=O)N1C [Example 24, cyclo-[(3R,4R,5S)-4-(hydroxy)-3-methyl-5-(methylamino)-1-N-(4,4-difluoro-piperidine)-hexanoic acid-Thr-Sar-MeLeu-Leu-MeLeu-Ala-D-Hiv-MeLeu-Leu-MeVal]] (cyclo([Hiv][dNMeL][dL][dNMeV][X20][d(aThr)][Sar][NMeL][dL][dNMeL][dA])) | 25 to 50 µM (≈ 33.5 to 67 µg/mL) | 1 to 25 nM | 1 to 25 nM |  |  | 
CC(C)C[C@@H]1C(=O)N[C@H](CC(C)C)C(=O)N(C)[C@H](C(C)C)C(=O)N(C)[C@H]([C@H](O)[C@H](C)CCN(C)CCC#N)C(=O)N[C@H]([C@@H](C)O)C(=O)N(C)CC(=O)N(C)[C@@H](CC(C)C)C(=O)N[C@H](CC(C)C)C(=O)N(C)[C@H](CC(C)C)C(=O)N[C@H](C)C(=O)O[C@@H](C(C)C)C(=O)N1C [Example 27, cyclo-[(3R,4R,5S)-4-(hydroxy)-3-methyl-5-(methylamino)-1-N-(3-methylamino-propionitrile)-hexanoic acid-Thr-Sar-MeLeu-Leu-MeLeu-Ala-D-Hiv-MeLeu-Leu-MeVal]] (cyclo([Hiv][dNMeL][dL][dNMeV][X11][d(aThr)][Sar][NMeL][dL][dNMeL][dA])) | > 100 µM | 25 to 100 nM | 1 to 25 nM |  |  | 

More lines, now with the values ahead:

solubility at 18 h ([1]; pH 7.8) | Ki (cyclophilin A (Cyp A)) | Ki (cyclophilin D (Cyp D)) | solubility at 18 h ([1]; 35 mM HEPES buffer, 35 mM HEPES pH 7.8, 1% DMSO, 25° C., 18 h, concentration at which compound remains in solution, read-out: Solubility) | Ki (cyclophilin A (Cyp A); protease-free PPIase assay, class symbols, read-out: CypA Ki) | Ki (cyclophilin D (Cyp D); protease-free PPIase assay, class symbols, read-out: CypD Ki) | SMILES
 |  |  | > 100 µM | 100 to 300 nM | 100 to 300 nM | CC(C)C[C@@H]1C(=O)N[C@H](CC(C)C)C(=O)N(C)[C@H](C(C)C)C(=O)N(C)[C@H]([C@H](O)[C@H](C)CCN2CCC(F)(CO)CC2)C(=O)N[C@H]([C@@H](C)O)C(=O)N(C)CC(=O)N(C)[C@@H](CC(C)C)C(=O)N[C@H](CC(C)C)C(=O)N(C)[C@H](CC(C)C)C(=O)N[C@H](C)C(=O)O[C@@H](C(C)C)C(=O)N1C [Example 25, cyclo-[(3R,4R,5S)-4-(hydroxy)-3-methyl-5-(methylamino)-1-N-((4-fluoro-piperidin-4-yl)-methanol)-hexanoic acid-Thr-Sar-MeLeu-Leu-MeLeu-Ala-D-Hiv-MeLeu-Leu-MeVal]] (cyclo([Hiv][dNMeL][dL][dNMeV][X33][d(aThr)][Sar][NMeL][dL][dNMeL][dA]))
> 100 µM | 100 to 300 nM | 25 to 100 nM |  |  |  | CC(C)C[C@@H]1C(=O)N[C@H](CC(C)C)C(=O)N(C)[C@H](C(C)C)C(=O)N(C)[C@H]([C@H](O)[C@H](C)CCN2CCC[C@H]2CO)C(=O)N[C@H]([C@@H](C)O)C(=O)N(C)CC(=O)N(C)[C@@H](CC(C)C)C(=O)N[C@H](CC(C)C)C(=O)N(C)[C@H](CC(C)C)C(=O)N[C@H](C)C(=O)O[C@@H](C(C)C)C(=O)N1C [Example 26, cyclo-[(3R,4R,5S)-4-(hydroxy)-3-methyl-5-(methylamino)-1-N—((S)-1-Pyrrolidin-2-yl-methanol)-hexanoic acid-Thr-Sar-MeLeu-Leu-MeLeu-Ala-D-Hiv-MeLeu-Leu-MeVal]] (cyclo([Hiv][dNMeL][dL][dNMeV][X8][d(aThr)][Sar][NMeL][dL][dNMeL][dA]))
